One assay addresses Cytochrome P450 3A4 (Homo sapiens, UniProt P08684). To be noted: Potency.
A short description of assay [1]: viability of uninfected HEp-2 cells – cell-based, HTS, cytotoxicity control for RSV inhibitor project, dose response (AID 2410). To be noted: human respiratory syncytial virus. In kind it is functional.
Assay [2] has as its target T1, Calpain-2 catalytic subunit (Sus scrofa, UniProt P43367).
T1 sequence (P43367 whole entry): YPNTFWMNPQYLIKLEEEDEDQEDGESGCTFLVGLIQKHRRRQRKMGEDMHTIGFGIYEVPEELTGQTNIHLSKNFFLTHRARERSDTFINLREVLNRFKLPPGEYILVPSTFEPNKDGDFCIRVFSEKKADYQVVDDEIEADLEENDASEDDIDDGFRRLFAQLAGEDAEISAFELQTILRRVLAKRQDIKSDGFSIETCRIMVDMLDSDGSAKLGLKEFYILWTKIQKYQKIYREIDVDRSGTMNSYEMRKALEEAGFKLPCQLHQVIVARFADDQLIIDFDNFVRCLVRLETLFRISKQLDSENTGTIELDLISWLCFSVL
Description: m-calpain protease blockers, concentration series – biochemical, fluorogenic peptide substrate, dose response (AID 1420). The format is functional.

Assay [3] in a line: Luminescence Cell-Based Dose Retest to Confirm Inhibitors of Cancer Stem Cells. [Related pubchem assays (depositor defined):AID2717, AID2721]. The note with it: Homo sapiens. The format is functional.
Another assay concerns the target Genome polyprotein (dengue virus type 2, UniProt P29990). In words: flavivirus cap methylation enzyme inhibition – biochemical, confirmation dose response, primary screen (AID 588689). The format is functional.
The subject of assay [4] is Streptococcus sp. 'group A'. Description: Streptococcus pyogenes SK(-)GAS viability under kanamycin – luminescence, BacTiterGlo, confirmation, counter-screen for streptokinase expression inhibitor project, dose response (AID 1900). The format is functional, organism-based.
The next assay has as its target T2, Streptokinase A (Streptococcus pyogenes serotype M1, UniProt P10520).
T2 sequence (P10520 whole entry): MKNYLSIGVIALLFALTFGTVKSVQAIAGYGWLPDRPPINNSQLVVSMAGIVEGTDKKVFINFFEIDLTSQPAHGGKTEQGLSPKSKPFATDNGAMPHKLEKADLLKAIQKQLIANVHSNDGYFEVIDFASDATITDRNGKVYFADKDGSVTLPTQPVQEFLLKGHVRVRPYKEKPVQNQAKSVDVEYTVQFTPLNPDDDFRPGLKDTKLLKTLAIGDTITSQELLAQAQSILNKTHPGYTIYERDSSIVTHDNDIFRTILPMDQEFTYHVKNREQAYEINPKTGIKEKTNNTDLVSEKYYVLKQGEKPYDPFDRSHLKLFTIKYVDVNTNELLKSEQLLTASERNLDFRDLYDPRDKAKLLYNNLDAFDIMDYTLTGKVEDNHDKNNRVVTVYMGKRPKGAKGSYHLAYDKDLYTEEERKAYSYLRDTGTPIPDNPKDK
In words: viability-normalized secreted streptokinase activity reduction – plasminogen activation absorbance, OD405, dose response (AID 1914).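 Note: secreted streptokinase activity via plasminogen activation per viability signal from cell pellet.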 In kind it is functional, Streptococcus pyogenes M1 GAS.

Another assay concerns Streptococcus. Description: GAS UMAA2166 growth inhibition – luminescence, BacTiterGlo, counter-screen for streptokinase expression inhibitor project, dose response (AID 1915).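 Note: potency for reduction of bacterial viability or growth.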 In kind it is functional, organism-based. For orientation: A counterscreen serves to expose hits that act by an unwanted route or on another target.
Assay [5] addresses T3, Long-chain-fatty-acid--AMP ligase FadD28 (Mycobacterium tuberculosis, UniProt P9WQ59).
T3 sequence (P9WQ59 whole entry): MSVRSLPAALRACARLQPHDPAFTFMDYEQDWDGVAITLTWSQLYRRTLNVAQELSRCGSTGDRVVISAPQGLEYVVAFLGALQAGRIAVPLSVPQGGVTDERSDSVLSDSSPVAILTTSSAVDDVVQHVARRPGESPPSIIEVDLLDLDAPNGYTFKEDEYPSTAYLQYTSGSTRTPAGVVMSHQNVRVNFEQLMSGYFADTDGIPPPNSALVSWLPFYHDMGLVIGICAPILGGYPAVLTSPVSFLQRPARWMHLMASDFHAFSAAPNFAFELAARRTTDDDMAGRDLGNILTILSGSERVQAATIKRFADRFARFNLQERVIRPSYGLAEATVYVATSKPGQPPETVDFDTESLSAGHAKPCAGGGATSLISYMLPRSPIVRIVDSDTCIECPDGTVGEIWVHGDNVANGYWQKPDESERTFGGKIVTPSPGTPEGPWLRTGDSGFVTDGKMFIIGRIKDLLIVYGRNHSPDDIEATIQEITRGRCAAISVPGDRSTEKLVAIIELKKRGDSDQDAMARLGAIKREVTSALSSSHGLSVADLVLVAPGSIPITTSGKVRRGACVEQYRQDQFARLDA
In words: Fluorescence polarization aasay to screen for inhibitors that compete for the binding of FadD28 to a bisubstrate Measured in Biochemical System Using Plate Reader - 2147-01_Inhibitor_Dose_CherryPick_Activity. In kind it is functional, Mycobacterium tuberculosis H37Rv.

The target in assay [6] is FAD-linked sulfhydryl oxidase ALR (Homo sapiens, UniProt P55789). In words: ALR-catalysed DTT oxidation blockers – biochemical, H2O2 detection, luminescence, cherry-pick, dose response (AID 493248).
Assay [7] concerns the target T4, Endoribonuclease toxin MazF (Escherichia coli K-12, UniProt P0AE70).
T4 sequence (P0AE70 whole entry): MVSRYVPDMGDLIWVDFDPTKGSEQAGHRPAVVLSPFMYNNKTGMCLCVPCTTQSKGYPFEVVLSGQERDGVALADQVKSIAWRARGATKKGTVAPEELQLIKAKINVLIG
In words: substrate-only fluorescence increase artefacts – biochemical, single-stranded RNase substrate, counter-screen for MazEF activator project, dose response (AID 588502). The format is functional.

Assay [8] has as its target T5, Corticotropin-releasing factor receptor 2/Corticotropin-releasing factor-binding protein (Homo sapiens, UniProt P24387+Q13324).
T5 sequence (Q13324 whole entry): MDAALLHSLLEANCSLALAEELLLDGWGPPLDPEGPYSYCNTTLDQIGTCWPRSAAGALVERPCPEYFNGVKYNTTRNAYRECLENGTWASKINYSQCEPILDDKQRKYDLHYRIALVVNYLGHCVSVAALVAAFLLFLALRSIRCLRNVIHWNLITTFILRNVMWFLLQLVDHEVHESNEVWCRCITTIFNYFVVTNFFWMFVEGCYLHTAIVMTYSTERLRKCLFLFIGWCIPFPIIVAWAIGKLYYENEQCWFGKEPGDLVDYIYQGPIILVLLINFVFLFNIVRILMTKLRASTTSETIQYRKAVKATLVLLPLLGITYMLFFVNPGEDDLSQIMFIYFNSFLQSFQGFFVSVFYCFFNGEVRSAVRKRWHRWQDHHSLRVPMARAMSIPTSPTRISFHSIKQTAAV
T5 sequence (P24387 whole entry): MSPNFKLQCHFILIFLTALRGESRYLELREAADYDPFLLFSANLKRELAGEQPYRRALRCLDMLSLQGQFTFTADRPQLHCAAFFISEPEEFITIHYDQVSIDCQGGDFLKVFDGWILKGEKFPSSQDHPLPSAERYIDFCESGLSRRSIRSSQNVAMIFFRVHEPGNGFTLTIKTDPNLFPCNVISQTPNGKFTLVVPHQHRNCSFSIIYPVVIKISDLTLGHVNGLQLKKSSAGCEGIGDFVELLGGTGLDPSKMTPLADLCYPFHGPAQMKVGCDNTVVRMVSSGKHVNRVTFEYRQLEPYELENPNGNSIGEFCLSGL
Description: activators of CRF receptor 2 with binding protein – uHTS hits, confirmation (AID 602473). In kind it is functional. The note with it: read-out: EC50_Mean.

For assay [9], the target named is T4, Endoribonuclease toxin MazF. Description: activation of MazEF endoribonuclease cleavage – biochemical, fluorescence, single-stranded RNA substrate, uHTS hits, dose response (AID 588481). The format is functional.
For assay [10], the target named is Eukaryotic translation initiation factor 4E (Mus musculus, UniProt P63073). Description: blockers of eIF4G binding by eIF4E – biochemical, TR-FRET, dose response (AID 855).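 Note: potency for disrupting eIF4E binding to eIF4GI seen as loss of FRET.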 The format is functional. (In general: Time-resolved FRET reads energy transfer from a long-lived donor to a nearby acceptor.)
Assay [11] is described as follows: microbe, parasite or virus in culture. In kind it is functional. The note with it: Mycobacterium tuberculosis.
The target in the next assay is Cytochrome P450 2C9 (Homo sapiens, UniProt P11712).

Activity calls are given as the source filed them.

Chain of Eukaryotic translation initiation factor 4E (P63073 whole entry): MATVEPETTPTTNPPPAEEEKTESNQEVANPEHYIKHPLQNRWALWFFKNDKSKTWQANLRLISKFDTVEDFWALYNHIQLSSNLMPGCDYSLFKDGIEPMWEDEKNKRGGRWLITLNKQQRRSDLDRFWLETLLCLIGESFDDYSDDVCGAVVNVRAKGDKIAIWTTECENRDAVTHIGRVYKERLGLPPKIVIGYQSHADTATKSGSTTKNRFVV
Chain of Cytochrome P450 3A4 (P08684 whole entry): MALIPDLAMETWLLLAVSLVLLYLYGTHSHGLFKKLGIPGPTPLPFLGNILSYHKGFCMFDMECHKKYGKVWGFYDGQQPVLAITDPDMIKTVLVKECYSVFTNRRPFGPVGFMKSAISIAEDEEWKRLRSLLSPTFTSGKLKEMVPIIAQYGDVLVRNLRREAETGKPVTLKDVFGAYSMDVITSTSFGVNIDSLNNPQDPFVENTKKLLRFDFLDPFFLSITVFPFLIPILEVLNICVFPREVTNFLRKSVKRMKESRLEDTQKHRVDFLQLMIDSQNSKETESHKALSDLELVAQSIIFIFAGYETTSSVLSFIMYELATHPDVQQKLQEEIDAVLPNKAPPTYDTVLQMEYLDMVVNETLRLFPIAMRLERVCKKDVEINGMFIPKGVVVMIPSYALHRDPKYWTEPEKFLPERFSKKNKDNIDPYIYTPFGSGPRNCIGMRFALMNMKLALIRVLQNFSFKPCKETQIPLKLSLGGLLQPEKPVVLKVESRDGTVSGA
Chain of FAD-linked sulfhydryl oxidase ALR (P55789 whole entry): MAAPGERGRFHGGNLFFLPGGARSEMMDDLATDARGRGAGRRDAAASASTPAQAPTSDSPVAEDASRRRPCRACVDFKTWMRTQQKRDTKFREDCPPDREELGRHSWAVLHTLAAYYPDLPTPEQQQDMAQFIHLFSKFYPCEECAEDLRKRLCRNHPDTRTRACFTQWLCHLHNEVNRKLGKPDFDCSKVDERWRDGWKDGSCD
Chain of Genome polyprotein (P29990 2492-3391 limits assumed): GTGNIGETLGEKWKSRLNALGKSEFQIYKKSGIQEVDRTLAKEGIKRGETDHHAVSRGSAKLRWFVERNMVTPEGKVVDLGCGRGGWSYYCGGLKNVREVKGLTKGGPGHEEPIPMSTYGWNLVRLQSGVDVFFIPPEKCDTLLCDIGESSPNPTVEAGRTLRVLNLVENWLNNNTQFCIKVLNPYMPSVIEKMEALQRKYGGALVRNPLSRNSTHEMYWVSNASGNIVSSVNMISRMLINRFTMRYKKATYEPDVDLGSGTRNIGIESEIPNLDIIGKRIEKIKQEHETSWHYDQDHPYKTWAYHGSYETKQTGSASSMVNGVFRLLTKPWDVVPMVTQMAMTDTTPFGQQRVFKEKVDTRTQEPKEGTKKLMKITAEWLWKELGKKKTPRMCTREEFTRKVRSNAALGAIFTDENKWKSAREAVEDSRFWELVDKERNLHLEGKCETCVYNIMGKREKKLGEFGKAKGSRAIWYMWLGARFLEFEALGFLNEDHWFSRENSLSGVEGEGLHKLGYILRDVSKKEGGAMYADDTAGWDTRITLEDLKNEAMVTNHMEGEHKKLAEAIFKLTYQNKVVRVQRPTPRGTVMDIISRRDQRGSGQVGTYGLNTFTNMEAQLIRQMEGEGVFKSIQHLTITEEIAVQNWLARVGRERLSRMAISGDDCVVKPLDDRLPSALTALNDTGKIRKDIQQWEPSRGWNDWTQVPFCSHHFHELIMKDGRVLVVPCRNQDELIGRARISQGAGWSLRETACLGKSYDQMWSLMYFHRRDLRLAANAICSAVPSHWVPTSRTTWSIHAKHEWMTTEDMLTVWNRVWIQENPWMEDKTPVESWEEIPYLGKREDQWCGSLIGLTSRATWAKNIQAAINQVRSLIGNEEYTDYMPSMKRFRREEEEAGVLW
Chain of Cytochrome P450 2C9 (P11712 whole entry): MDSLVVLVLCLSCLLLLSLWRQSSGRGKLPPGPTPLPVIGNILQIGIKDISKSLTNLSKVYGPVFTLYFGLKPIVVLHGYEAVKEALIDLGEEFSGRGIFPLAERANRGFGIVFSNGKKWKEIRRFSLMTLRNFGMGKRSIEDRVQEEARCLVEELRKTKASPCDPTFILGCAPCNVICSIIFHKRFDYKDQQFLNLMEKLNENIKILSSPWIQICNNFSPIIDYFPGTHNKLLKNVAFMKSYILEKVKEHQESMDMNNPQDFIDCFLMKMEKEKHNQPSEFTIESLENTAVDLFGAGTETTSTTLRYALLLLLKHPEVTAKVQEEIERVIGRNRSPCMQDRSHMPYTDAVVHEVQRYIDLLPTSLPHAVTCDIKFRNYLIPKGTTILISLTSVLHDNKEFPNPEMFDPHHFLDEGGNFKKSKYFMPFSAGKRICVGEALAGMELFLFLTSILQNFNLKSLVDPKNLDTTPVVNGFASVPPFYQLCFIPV

Usually AC50 stands for the concentration giving half of the maximal activity seen. Regarding `C=CCc1ccc2c(c1)OCO2` [SAFROLE], on Cytochrome P450 3A4, the AC50 is 3.16 µM (inconclusive).

A word on the IC50: it is the concentration that inhibits the measured activity by half. Regarding `CN1c2ccccc2C(C)(C)C12CC(c1cccc(S(=O)(=O)N3CCCC3)c1)=NO2` (stereo unspecified), in assay [1], the CC50 was 17.7 µM (active). Besides, the half-maximal inhibitory concentration (IC50) in “cells” is 18.3 µM (active).

Take `O=C(CNC(=O)c1ccco1)N=Nc1c(O)[nH]c2ccc([N+](=O)[O-])cc12`: the 50% inhibitory concentration (IC50) in the assay “cells” was 20.6 µM (active).

With `CC(C)CNS(=O)(=O)c1ccc(CCC(=O)Nc2cc(Cl)ccc2Oc2ccccc2)cc1`, the IC50 in assay [2] is recorded as 5.08 µM (not active).

As for `Cc1ccc(F)c(NC(=O)/C(C#N)=C(\O)c2ccc(C(C)(C)C)cc2)c1`, the figures for the AC50 in assay [3] and in assay [5] were 1.96 µM (active) and > 100 µM (inactive), respectively. Further, the half-inhibitory concentration (IC50) on Genome polyprotein was 32.6 µM (active). In addition, the EC50 in [4] is 16.7 µM (active); on Streptokinase A it was > 150 µM (not active); in the assay on Streptococcus, > 150 µM (not active).

As to `COc1cc(/C=C2\SC(=S)N(CC(=O)Nc3cccnc3)C2=O)cc(OC)c1OC`, in assay [5], the AC50 is 72.2 µM (active).

Turning to `COc1ccc(-c2csc(Nc3ccc(S(=O)(=O)Nc4cc(C)on4)cc3)n2)cc1`, the AC50 is 12.9 µM (active) in assay [6] and 67.4 µM (active) in assay [5].

As to `CCOc1ccc(N2C(=O)NC(=O)/C(=C\c3c[nH]c4ccccc34)C2=O)cc1`, the EC50 in assay [7] is 16.3 µM (active); in assay [8], 15.4 µM (active); in [9], > 99 µM (inactive).

For `Cc1cccc(-n2c(=O)c3c4c(sc3n3c(=S)[nH]nc23)CCC4)c1`, the IC50 in assay [10] is 50 µM (inactive).

As to `COC1(C#CC2C=CC(OC(C)=O)C(COC(C)=O)O2)CCCCC1` (stereo unspecified), on Cytochrome P450 3A4, the AC50 was 3.98 µM (inconclusive).

`C/C(N)=C(/C#N)C(=O)COC(=O)CNS(=O)(=O)c1ccc2ccccc2c1`: in “cells”, the 50% inhibitory concentration (IC50) was 11.8 µM (active).

As for `CC(=O)Nc1ccc(S(=O)(=O)Nc2cccc3[nH]ncc23)cc1`, in assay [2], the IC50 was > 50 µM (not active).

With `CC1=C(C(=O)OCC(C)C)C23C(=O)c4ccccc4C2(O1)OC(N)=C3C#N` (stereo unspecified), the IC50 in [2] is recorded as > 50 µM (not active).

With `NS(=O)(=O)c1ccc(NC(=O)COc2ccc(C(=O)c3ccc(F)cc3)cc2)cc1`, the AC50 in assay [5] is > 100 µM (inactive).

Turning to `O=C1c2cccnc2C(Nc2ccccc2)N1Cc1ccco1` (stereo unspecified), in the assay “cells”, the IC50 is 15.1 µM (active).

Turning to `CCc1ccc(C(=O)NNC(=O)OC)cc1`, in assay [10], the IC50 is 50 µM (inactive).

For `COC(=O)C1(C)C=CC2(CCCCC2)N1C(=O)c1ccccc1` (stereo unspecified), the half-maximal activity concentration (AC50) on Cytochrome P450 3A4 is 20 µM (inconclusive).

On to `O=S(=O)(c1ccccc1Cl)N1CCCC(c2nc(O)c3nnn(Cc4ccc5c(c4)OCCO5)c3n2)C1` (stereo unspecified), for which the CC50 in assay [1] was 16.6 µM (active). In addition, the IC50 in the assay “cells” is 10.1 µM (active).

Take `Cc1nn(Cc2cccc(C(=O)NC(C)c3ccc(C(C)(C)C)cc3)c2)c(C)c1[N+](=O)[O-]` (stereo unspecified): in [2], the IC50 is 6.98 µM (not active).

As for `COc1cc(O)c2c(=O)c(O)c(-c3ccc(O)c(O)c3)oc2c1` [RHAMNETIN], the AC50 at Cytochrome P450 3A4 is 39.8 µM (inconclusive).

`COc1cc(NC2c3ncccc3C(=O)N2Cc2ccco2)cc(OC)c1OC` (stereo unspecified): in “cells”, the 50% inhibitory concentration (IC50) was 30.1 µM (active).

On to `COc1cccc(NC(=O)COc2ccc(N3CC(C(=O)NCC(C)C)CC3=O)cc2)c1` (stereo unspecified), for which the IC50 in assay [10] is > 64 µM (inactive).

`Cc1ccccc1NC(=O)COC(=O)CCc1ccccc1`: the 50% inhibitory concentration (IC50) in assay [2] was 20.8 µM (not active).

Take `CN1C(=O)/C(=C/c2ccccc2Cl)Sc2ccc(C(=O)NCc3cccnc3)cc21`: in assay [11], the CC50 was > 40 µM (active). Also, the IC50 in assay [2] is listed as 5.27 µM (not active). Besides, the EC50 in assay [4] was 4.4 µM (active); on Streptokinase A it was > 150 µM (not active); in the assay with Streptococcus, 16.1 µM (active).

Consider `CN(CCOc1ccc(C[C@H](Nc2ccccc2C(=O)c2ccccc2)C(=O)O)cc1)c1ccccn1`, for which the AC50 at Cytochrome P450 3A4 is 3.16 µM (inconclusive); at Cytochrome P450 2C9, 31.6 µM (inconclusive).

`Cc1ccc(S(=O)(=O)NCC(=O)Nc2ccc3c(c2)OCCO3)cc1`: the AC50 in assay [5] was > 100 µM (inactive).

(Values after ChEMBL document CHEMBL1201862, “PubChem BioAssay data set” (2004).)
